This note sets out measurements from patent US7276514B2, “Pyrroloquinoline quinone drugs for treatment of cardiac injury and methods of use thereof” (Charitable Leadership Foundation - Medical Technology …, priority 2002, dated 2007).

Series [1] concerns isolated mouse heart. The series can be described thus: Ex vivo isolated mouse heart (Langendorff), 20 min ischemia followed by 30 min reperfusion. The note with it: 100 nM PQQ given at the time of onset of reperfusion.
Series [2] has as its system adult cardiac mouse myocytes. Briefly: Cultured adult cardiac mouse myocytes exposed to severe hypoxia, viability by trypan blue exclusion. It is filed as cell-based. As for the experimental part: An in vitro model of cultured adult cardiac mouse myocytes was developed to study cardioprotection by PQQ. These cells are viable in culture for up to 48 hours at a physiologic pH and consist of >90% rod-shaped cells. These cells can be used readily for determination of cell viability by trypan blue exclusion, and for biochemical, immunochemical, and molecular studies. In this model, approximately 35% of the cells die when exposed to 0% oxygen in a hypoxia chamber for 2-3 hours. […] A higher concentration of PQQ (100 μM) is highly toxic under normoxic conditions as evidenced by 100% cell death.

The subject of a further series is cardiac myocytes. The series can be described thus: Cultured cardiac myocytes subjected to oxidative stress by H2O2. It is filed as cell-based. As for the experimental part:
Cultured cardiac myocytes are subjected to oxidative stress by in vitro administration of H2O2. Two studies are done, one in which PQQ is added in concentrations between 10 nM and less than 10 μM to cardiac myocytes, after which H2O2 is added. In the other study, cardiac myocytes are subjected to insult in vitro admininstration of H2O2 for two hours, after which PQQ is added in concentrations between 10 nM and less than 10 μM. In both studies, PQQ is found to be protective.

Series [3] concerns adult mouse cardiac myocytes. Briefly: Toxicity of PQQ to cultured adult mouse cardiac myocytes under normoxic conditions. It is filed as cell-based. Particulars: 100 μM PQQ. As for the experimental part:
The invention encompasses methods of treating or preventing cardiac injury caused by hypoxia or ischemia in a subject, wherein PQQ is administered to a subject in need thereof, such that hypoxia or ischemic-related injury is prevented or decreased. In certain embodiments, the PQQ is administered at a concentration of less than about 10 μM. In other embodiments, the PQQ is administered at a concentration in the range of about 10 nM to about 10 μM, about 10 nM to about 1 μM, 100 nM to about 10 μM, and 100 nM to about 500 nM. In still other embodiments of the invention, the PQQ is administered at a concentration such that the concentration of PQQ at the site of cardiac tissue is in the range of 10 nM to about 10 μM. PQQ may also be administered as a function of the subject's body weight. In some embodiments of the invention, PQQ is administered at a concentration of between about 1 μg/kg to 1 g/kg of a subject's body weight, including less than 500 mg/kg, 250 mg/kg, 100 mg/kg, 10 mg/kg, 5 mg/kg, 2 mg/kg, 1 mg/kg, 500 μg/kg, 250 μg/kg, 100 μg/kg, 10 μg/kg, 5 μg/kg, 2 μg/kg or 1 μg/kg. […]
An in vitro model of cultured adult cardiac mouse myocytes was developed to study cardioprotection by PQQ. […] These cells can be used readily for determination of cell viability by trypan blue exclusion, and for biochemical, immunochemical, and molecular studies. […]

Series [4] relates to isolated mouse heart. Briefly: Ex vivo isolated mouse heart (Langendorff), 20 min ischemia followed by 30 min reperfusion. On the procedure:
Ex vivo studies were performed using an isolated mouse heart preparation employing the Langendorff technique. In this approach, the heart is removed and mounted on a perfusion apparatus in which drugs can be given via an aortic cannula. The heart is paced at a constant rate, and left ventricular developed pressure [LVDP; left ventricular systolic pressure minus left ventricular end-diastolic pressure], left ventricular end-diastolic pressure [LVEDP], and the maximum positive and negative first derivatives of left ventricular pressure [+dP/dtmax and −dP/dtmax] are recorded. The heart is equilibrated for 20 min. After drug or vehicle is infused, the heart is subjected to 20 min of ischemia [coronary flow completely stopped] followed by 30 min of reperfusion. Coronary sinus flow as a reflection of coronary blood flow is also measured. This protocol leads to severe myocardial injury as measured by hemodynamic parameters.

The mark [5] stands for this setting: 100 nM PQQ infused for 2 minutes prior to ischemia.

“Also recorded” adds a separate entry of the source.

`O=C(O)c1cc(C(=O)O)c2c(n1)C(=O)C(=O)c1cc(C(=O)O)[nH]c1-2` [PQQ, Pyrroloquinoline quinone]: the “hemodynamic response when given at onset of reperfusion (PQQ tre.)” value in the series with isolated mouse heart [1] is recorded as “equivalent to pretreatment”. Moreover, in series [2] (1 μM PQQ added 1 hour before severe hypoxia (0% oxygen for 2-3 hours)), the “proportion of viable cells (trypan blue exclusion) after hypoxia” value is “significant increase”. The “PQQ protection against hypoxia-induced cell death in presence of mitochondrial KATP channel inhibitor” value in series [2] (1 μM PQQ with 100 μM 5-hydroxydecanoic acid) is “not inhibited”. In series [2] (10 μM 5-hydroxydecanoic acid), the “PQQ protection in presence of mitochondrial KATP channel inhibitor (FIG. 2 legend)” value is on record as “not inhibited”. Also, the “protection of cardiac myocytes against H2O2 oxidative stress” value in the series on cardiac myocytes (PQQ between 10 nM and less than 10 μM added after two hours of H2O2) is on record as “protective”. Moreover, the “protection of cardiac myocytes against H2O2 oxidative stress” value in the series with cardiac myocytes (PQQ between 10 nM and less than 10 μM added before H2O2) is listed as “protective”. In addition, the “toxicity to cultured adult mouse cardiac myocytes” value in series [3] was “highly toxic; also recorded: observed”. The cell death in series [3] (normoxic conditions) was found to be 100%. In the series on isolated mouse heart [4] (setting [5]), the “+dP/dtmax” value is “track the LVDP results”, the “left ventricular developed pressure (LVDP)” value is reported as “significant preservation; also recorded: preserves”, the “left ventricular end-diastolic pressure (LVEDP)” value is “preserves” and the “−dP/dtmax” value is “track the LVDP results”. Besides, the “toxicity (FIG. 8)” value in the series on isolated mouse heart [4] (2 min pretreatment, 10 μM PQQ) is “toxicity occurs”. The “hemodynamic response (FIG. 8)” value with isolated mouse heart [4] (2 min pretreatment, PQQ between 10 nM and 1 μM) is “progressively favorable responses”. The infarct size result in the series on isolated mouse heart [4] (PQQ pretreatment at 10 μM) is recorded as “not reduced”. In the series with isolated mouse heart [4] (PQQ pretreatment between 10 nM and 1 μM), the infarct size entry is given as “progressive reduction”. Further, the coronary flow entry with isolated mouse heart [4] (PQQ pretreatment compared to control) is given as “significantly improved”.
